In patent publication US8003660B2, “Modulators of muscarinic receptors” (Vertex Pharmaceuticals Incorporated, priority 2006, dated 2011):

What was measured:
Type in all cases: cell-based
M4 muscarinic receptor = target: T1, M4 muscarinic receptor (Homo sapiens, UniProt P08173); experiment: Functional mobilization of intracellular calcium (FLIPR) in CHO cells expressing M4; conditions: for M4 Activity: CHO cells expressing M4, FLIPR calcium assay; for Emax: CHO, 100% efficacy = maximum response obtained with the Carbachol control
T1 construct: expressed in transfected cells; host or cells: CHO (M4-CHO)
T1 sequence (P08173 1-479): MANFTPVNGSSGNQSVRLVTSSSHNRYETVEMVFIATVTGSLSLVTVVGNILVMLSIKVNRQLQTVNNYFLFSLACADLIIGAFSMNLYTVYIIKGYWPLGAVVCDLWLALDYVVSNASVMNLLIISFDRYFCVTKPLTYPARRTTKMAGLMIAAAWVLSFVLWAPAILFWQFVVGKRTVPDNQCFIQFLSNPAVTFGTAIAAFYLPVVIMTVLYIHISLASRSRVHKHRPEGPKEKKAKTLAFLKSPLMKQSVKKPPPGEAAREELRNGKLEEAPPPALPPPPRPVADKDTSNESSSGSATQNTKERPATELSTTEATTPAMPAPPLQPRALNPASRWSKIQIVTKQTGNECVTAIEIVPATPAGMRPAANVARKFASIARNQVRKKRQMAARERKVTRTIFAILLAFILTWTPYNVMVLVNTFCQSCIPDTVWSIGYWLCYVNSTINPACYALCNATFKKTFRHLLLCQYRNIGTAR
Outline: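 Read-out: FLIPR fluorescence (ex 488, em 540 nm) over 60 s. Recombinant CHO lines are dye-loaded (Fluo-3 AM or Calcium 3) with 1 mM probenecid. For antagonist mode, compound is pre-incubated 15 min, or co-applied, then carbachol is added at 3× EC80 per subtype.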

M1 muscarinic receptor = target: T2, M1 muscarinic receptor (Homo sapiens, UniProt P11229); experiment: Functional mobilization of intracellular calcium (FLIPR) in CHO cells expressing M1; conditions: for M1 Activity: CHO cells expressing M1, FLIPR calcium assay; for Emax: CHO, 100% efficacy = maximum response obtained with the Carbachol control
T2 construct: expressed in transfected cells; host or cells: CHO (M1-CHO)
T2 sequence (P11229 1-460): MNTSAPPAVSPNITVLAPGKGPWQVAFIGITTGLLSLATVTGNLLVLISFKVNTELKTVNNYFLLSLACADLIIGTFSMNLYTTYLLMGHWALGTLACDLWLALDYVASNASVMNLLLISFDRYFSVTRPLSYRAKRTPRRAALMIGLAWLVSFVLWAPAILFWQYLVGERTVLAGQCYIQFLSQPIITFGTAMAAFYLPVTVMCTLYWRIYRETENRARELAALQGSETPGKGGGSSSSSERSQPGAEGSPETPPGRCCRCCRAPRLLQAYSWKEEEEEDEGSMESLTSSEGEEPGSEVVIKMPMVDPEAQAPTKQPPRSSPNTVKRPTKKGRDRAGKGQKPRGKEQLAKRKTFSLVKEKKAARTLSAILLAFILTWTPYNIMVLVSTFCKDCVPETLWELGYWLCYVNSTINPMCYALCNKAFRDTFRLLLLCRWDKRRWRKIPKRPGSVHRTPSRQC
Outline: (§1)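 Calcium flux is read on FLIPR over 60 sec at 488/540 nm in muscarinic-receptor CHO lines. Antagonist mode adds carbachol at EC80 after 15 min compound preincubation or with simultaneous co-application. Agonist mode adds compound alone. Cells carry Fluo-3 or Calcium 3 dye in probenecid-containing pH 7.4 buffer, 0.5% DMSO final.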

M2 muscarinic receptor = target: T3, M2 muscarinic receptor (Homo sapiens, UniProt P08172); experiment: Functional mobilization of intracellular calcium (FLIPR) in CHO cells expressing M2; conditions: for M2 Activity: CHO cells expressing M2, FLIPR calcium assay; for Emax: CHO, 100% efficacy = maximum response obtained with the Carbachol control
T3 construct: expressed in transfected cells; host or cells: CHO (M2-CHO)
T3 sequence (P08172 1-466): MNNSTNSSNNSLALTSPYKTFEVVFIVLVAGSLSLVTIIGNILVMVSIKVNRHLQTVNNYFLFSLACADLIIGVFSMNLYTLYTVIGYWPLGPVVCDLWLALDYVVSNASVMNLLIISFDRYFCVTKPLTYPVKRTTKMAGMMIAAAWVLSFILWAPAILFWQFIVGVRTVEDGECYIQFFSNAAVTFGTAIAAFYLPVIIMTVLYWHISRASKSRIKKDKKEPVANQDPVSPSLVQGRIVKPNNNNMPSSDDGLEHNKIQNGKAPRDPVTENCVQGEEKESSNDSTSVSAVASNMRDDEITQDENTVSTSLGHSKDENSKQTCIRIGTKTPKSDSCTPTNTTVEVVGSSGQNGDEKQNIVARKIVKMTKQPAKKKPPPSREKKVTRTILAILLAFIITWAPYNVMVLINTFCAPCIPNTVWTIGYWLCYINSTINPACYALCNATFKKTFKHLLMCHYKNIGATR
Outline: as §1

M3 muscarinic receptor = target: T4, M3 muscarinic receptor (Homo sapiens, UniProt P20309); experiment: Functional mobilization of intracellular calcium (FLIPR) in CHO cells expressing M3; conditions: for M3 Activity: CHO cells expressing M3, FLIPR calcium assay; for Emax: CHO, 100% efficacy = maximum response obtained with the Carbachol control
T4 construct: expressed in transfected cells; host or cells: CHO (M3-CHO)
Outline: as §1

T4 sequence (P20309 whole entry): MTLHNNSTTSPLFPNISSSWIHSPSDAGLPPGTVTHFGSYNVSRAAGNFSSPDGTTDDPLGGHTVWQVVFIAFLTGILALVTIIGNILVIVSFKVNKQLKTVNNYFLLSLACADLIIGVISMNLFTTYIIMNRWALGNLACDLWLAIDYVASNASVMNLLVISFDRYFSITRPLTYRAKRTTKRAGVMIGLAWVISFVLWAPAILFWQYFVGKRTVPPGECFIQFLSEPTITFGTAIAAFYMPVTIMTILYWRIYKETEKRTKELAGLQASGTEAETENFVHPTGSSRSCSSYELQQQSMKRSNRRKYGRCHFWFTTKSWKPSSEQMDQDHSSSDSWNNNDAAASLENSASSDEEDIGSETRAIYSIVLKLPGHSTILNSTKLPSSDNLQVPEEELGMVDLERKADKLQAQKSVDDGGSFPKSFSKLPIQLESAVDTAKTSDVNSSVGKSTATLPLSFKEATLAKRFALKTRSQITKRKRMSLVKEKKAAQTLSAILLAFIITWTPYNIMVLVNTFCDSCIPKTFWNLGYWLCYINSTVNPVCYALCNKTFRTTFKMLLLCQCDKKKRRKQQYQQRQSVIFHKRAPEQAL

Row | SMILES | M4 Activity (M4 muscarinic receptor) | Emax (M4 muscarinic receptor) | M1 Activity (M1 muscarinic receptor) | Emax (M1 muscarinic receptor) | M2 Activity (M2 muscarinic receptor) | Emax (M2 muscarinic receptor) | M3 Activity (M3 muscarinic receptor) | Emax (M3 muscarinic receptor)
1 | CCN(C(=O)CCNC(C)=O)[C@H]1CCC2(CCN(CCC(C)(C)C)CC2)c2ccccc21 [compound 187] | +++ (activity was measured to be less than 2.0 μM) | 25 to 100% | +++ (activity was measured to be less than 2.0 μM) | 25 to 100% | + (activity was measured to be greater than 5.0 μM) | < 25% | + (activity was measured to be greater than 5.0 μM) | < 25%
2 | CC(C)(C)CCN1CCC2(CC[C@@H](NC(=O)C3CCOCC3)c3ccccc32)CC1 [compound 188] | +++ (activity was measured to be less than 2.0 μM) | 25 to 100% | + (activity was measured to be greater than 5.0 μM) | < 25% | + (activity was measured to be greater than 5.0 μM) | < 25% | + (activity was measured to be greater than 5.0 μM) | < 25%
3 | CC(=O)N[C@@H]1CCC2(CCN(CCC(C)(C)C)CC2)c2cc(F)ccc21 [compound 189] | +++ (activity was measured to be less than 2.0 μM) | 25 to 100% | +++ (activity was measured to be less than 2.0 μM) | 25 to 100% | +++ (activity was measured to be less than 2.0 μM) | < 25% | + (activity was measured to be greater than 5.0 μM) | < 25%
4 | CC(=O)N1CCC(C(=O)N[C@H]2CCC3(CCN(CCC(C)(C)C)CC3)c3ccccc32)CC1 [compound 191] | +++ (activity was measured to be less than 2.0 μM) | 25 to 100% | +++ (activity was measured to be less than 2.0 μM) | 25 to 100% | + (activity was measured to be greater than 5.0 μM) | < 25% | + (activity was measured to be greater than 5.0 μM) | < 25%
5 | CC(C)(C)CCN1CCC2(CC[C@@H](NC(=O)[C@H]3CCC(=O)N3)c3ccc(F)cc32)CC1 [compound 192] | +++ (activity was measured to be less than 2.0 μM) | 25 to 100% | + (activity was measured to be greater than 5.0 μM) | < 25% | + (activity was measured to be greater than 5.0 μM) | < 25% | + (activity was measured to be greater than 5.0 μM) | < 25%
6 | Cn1nccc1C(=O)N[C@H]1CCC2(CCN(CCC(C)(C)C)CC2)c2ccccc21 [compound 193] | +++ (activity was measured to be less than 2.0 μM) | 25 to 100% | +++ (activity was measured to be less than 2.0 μM) | 25 to 100% | + (activity was measured to be greater than 5.0 μM) | < 25% | + (activity was measured to be greater than 5.0 μM) | < 25%
7 | CC(=O)N1CCC[C@H]1C(=O)N[C@H]1CCC2(CCN(CCC(C)(C)C)CC2)c2ccccc21 [compound 194] | +++ (activity was measured to be less than 2.0 μM) | 25 to 100% | +++ (activity was measured to be less than 2.0 μM) | 25 to 100% | + (activity was measured to be greater than 5.0 μM) | < 25% | + (activity was measured to be greater than 5.0 μM) | < 25%
8 | CC(C)(C)CCN1CCC2(CC[C@H](NC(=O)Cc3cccnc3)c3ccccc32)CC1 [compound 195] | +++ (activity was measured to be less than 2.0 μM) | 25 to 100% | +++ (activity was measured to be less than 2.0 μM) | 25 to 100% | +++ (activity was measured to be less than 2.0 μM) | 25 to 100% | + (activity was measured to be greater than 5.0 μM) | < 25%
9 | CCOCC(=O)N[C@H]1CCC2(CCN(CCC(C)(C)C)CC2)c2cc(F)ccc21 [compound 196] | +++ (activity was measured to be less than 2.0 μM) | 25 to 100% | +++ (activity was measured to be less than 2.0 μM) | 25 to 100% | +++ (activity was measured to be less than 2.0 μM) | 25 to 100% | + (activity was measured to be greater than 5.0 μM) | < 25%
10 | CC(C)(C)CCN1CCC2(CC[C@H](NC(=O)CCCN3CCCC3=O)c3ccccc32)CC1 [compound 197] | +++ (activity was measured to be less than 2.0 μM) | 25 to 100% | +++ (activity was measured to be less than 2.0 μM) | 25 to 100% | +++ (activity was measured to be less than 2.0 μM) | 25 to 100% | + (activity was measured to be greater than 5.0 μM) | < 25%
11 | CCN(C(=O)Cc1ccccn1)[C@H]1CCC2(CCN(CCC(C)(C)C)CC2)c2ccccc21 [compound 198] | +++ (activity was measured to be less than 2.0 μM) | 25 to 100% | +++ (activity was measured to be less than 2.0 μM) | 25 to 100% | ++ (activity was measured to be from 2.0 μM to 5.0 μM) | < 25% | + (activity was measured to be greater than 5.0 μM) | < 25%
12 | CCOC(=O)N(C)[C@H]1CCC2(CCN(CCC(C)(C)C)CC2)c2ccccc21 [compound 199] | +++ (activity was measured to be less than 2.0 μM) | 25 to 100% | ++ (activity was measured to be from 2.0 μM to 5.0 μM) | < 25% | + (activity was measured to be greater than 5.0 μM) | < 25% | + (activity was measured to be greater than 5.0 μM) | < 25%
